Like-named read-outs stand apart in the source and are kept apart here.
Legend:
Assay type in all cases: in vivo
[1] = tested on: Abutilon theophrasti (ABUTH); assay: Post-emergence herbicidal action against ABUTH; conditions: 80 g/ha, visual rating about 3 weeks after treatment vs untreated controls (100% = plants have died, 0% = like control plants)
Procedure, shortened: (§1)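 Rates were 320 g/ha or below, applied as aqueous WP/EC spray with 0.5% additive (600 l/ha) onto one-leaf-stage plants. About 3 weeks later in the greenhouse, damage was scored visually against untreated plants on a 0–100% scale, where 100% means plants died.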

[2] = tested on: Echinochloa crus-galli (ECHCG); assay: Post-emergence herbicidal action against ECHCG
Procedure, shortened: as §1

[3] = tested on: Matricaria inodora (MATIN); assay: Pre-emergence herbicidal action against MATIN
Procedure, shortened: (§2)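 Herbicide applied to soil before seedling emergence, at 600 l/ha spray volume with 0.5% additive and rates up to 320 g/ha. Evaluation: visual percentage effect, about 3 weeks later, greenhouse-grown pots compared with untreated ones.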

[4] = tested on: Pharbitis purpurea (PHBPU); assay: Post-emergence herbicidal action against PHBPU
Procedure, shortened: as §1

Oryza sativa (ORYSA) = conditions: crop plant compatibility
Procedure, shortened: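 Greenhouse crops in sandy loam sprayed post-emergence at the one-leaf stage, 2–3 weeks after sowing, with WP or EC formulations in water plus 0.5% additive at 600 l/ha. Damage rated visually about 3 weeks later versus untreated controls (0% = like control, 100% = dead); suffixes a–c denote different doses.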

[5] = tested on: Alopecurus myosuroides (ALOMY); assay: Post-emergence herbicidal action against ALOMY; conditions: visual rating about 3 weeks after treatment vs untreated controls (100% = plants have died, 0% = like control plants)
Procedure, shortened: as §1

Viola tricolor (VIOTR) [6] = assay: Pre-emergence herbicidal action against VIOTR
Procedure, shortened: as §2

[7] = tested on: Amaranthus retroflexus (AMARE); assay: Pre-emergence herbicidal action against AMARE; conditions: visual scoring after about 3 weeks vs untreated controls
Procedure, shortened: as §2

[8] = tested on: Echinochloa crus-galli (ECHCG); assay: Pre-emergence herbicidal action against ECHCG
Procedure, shortened: as §2

Lolium rigidum (LOLRI) [9] = assay: Post-emergence herbicidal action against LOLRI; conditions: dosage 80 g/ha
Procedure, shortened: as §1

Avena fatua (AVEFA) [10] = assay: Pre-emergence herbicidal action against AVEFA; conditions: visual scoring after about 3 weeks vs untreated controls
Procedure, shortened: as §2

Setaria viridis (SETVI) [11] = assay: Pre-emergence herbicidal action against SETVI
Procedure, shortened: as §2

[12] = tested on: Pharbitis purpurea (PHBPU); assay: Pre-emergence herbicidal action against PHBPU
Procedure, shortened: as §2

[13] = tested on: Abutilon theophrasti (ABUTH); assay: Pre-emergence herbicidal action against ABUTH; conditions: Dosage column 320 g/ha (title prints 3200 g/ha); scored visually after about 3 weeks; 100% = plants have died
Procedure, shortened: as §2

Avena fatua (AVEFA) [14] = assay: Post-emergence herbicidal action against AVEFA; conditions: visual rating about 3 weeks after treatment
Procedure, shortened: as §1

[15] = tested on: Verconica persica (VERPE); assay: Post-emergence herbicidal action against VERPE
Procedure, shortened: as §1

[16] = tested on: Polygonum convolvulus (POLCO); assay: Pre-emergence herbicidal action against POLCO
Procedure, shortened: as §2

[17] = tested on: Verconica persica (VERPE); assay: Pre-emergence herbicidal action against VERPE
Procedure, shortened: as §2

Setaria viridis (SETVI) [18] = assay: Post-emergence herbicidal action against SETVI
Procedure, shortened: as §1

[19] = tested on: Polygonum convolvulus (POLCO); assay: Post-emergence herbicidal action against POLCO; conditions: dosage 80 g/ha
Procedure, shortened: as §1

[20] = tested on: Amaranthus retroflexus (AMARE); assay: Post-emergence herbicidal action against AMARE
Procedure, shortened: as §1

[21] = tested on: Alopecurus myosuroides (ALOMY); assay: Pre-emergence herbicidal action against ALOMY; conditions: scored visually after about 3 weeks, 100% = plants have died
Procedure, shortened: as §2

Lolium rigidum (LOLRI) [22] = assay: Pre-emergence herbicidal action against LOLRI
Procedure, shortened: as §2

[23] = tested on: Matricaria inodora (MATIN); assay: Post-emergence herbicidal action against MATIN; conditions: dosage 320 g/ha
Procedure, shortened: as §1

Viola tricolor (VIOTR) [24] = assay: Post-emergence herbicidal action against VIOTR
Procedure, shortened: as §1

[25] = 80 g/ha, effect in comparison to untreated controls
[26] = 80 g/ha, visual rating about 3 weeks after treatment vs untreated controls (100% = plants have died, 0% = like control plants)

SMILES | Post-emergence action against ECHCG in % ([2]; dosage 80 g/ha) [%] | Pre-emergence action against MATIN in % ([3]; dosage 320 g/ha) [%] | Post-emergence action against ORYSA in % (Oryza sativa (ORYSA); [25]) [%] | Post-emergence action against ALOMY in % ([5]; 80 g/ha) [%] | Pre-emergence action against VIOTR in % (Viola tricolor (VIOTR) [6]; 320 g/ha, Viola tricolor) [%] | Pre-emergence action against VIOTR in % (Viola tricolor (VIOTR) [6]; dosage 80 g/ha) [%] | Pre-emergence action against AMARE in % ([7]; 80 g/ha) [%] | Pre-emergence action against AMARE in % ([7]; 320 g/ha) [%] | Pre-emergence action against ECHCG in % ([8]; dosage 80 g/ha) [%] | Pre-emergence action against ECHCG in % ([8]; dosage 320 g/ha) [%] | Pre-emergence action against AVEFA in % (Avena fatua (AVEFA) [10]; 320 g/ha) [%] | Pre-emergence action against SETVI in % (Setaria viridis (SETVI) [11]; dosage 320 g/ha) [%] | Pre-emergence action against PHBPU in % ([12]; dosage 80 g/ha) [%] | Pre-emergence action against PHBPU in % ([12]; dosage 320 g/ha) [%] | Pre-emergence action against ABUTH [13] [%] | Post-emergence action against VERPE in % ([15]; dosage 80 g/ha) [%] | Pre-emergence action against POLCO in % ([16]; dosage 320 g/ha) [%] | Pre-emergence action against VERPE in % ([17]; dosage 320 g/ha) [%] | Post-emergence action against SETVI in % (Setaria viridis (SETVI) [18]; dosage 80 g/ha) [%] | Post-emergence action against AMARE in % [20, 26] [%] | further results
O=C(O)COc1nn(-c2ccccn2)c(-c2cncc(F)c2)c1Br [Example I-84] | 80 | 90 | 10 | 80 | 100 | 90 | 80 | 100 | 80 | 100 | 90 | 100 | 90 | 90 | 80 | 80 | 90 | 100 | 80 | 90 | Post-emergence action against ABUTH in % [1]: 80%; Pre-emergence action against MATIN in % ([3]; dosage 80 g/ha): 90%; Post-emergence action against PHBPU in % ([4]; dosage 80 g/ha): 90%; Post-emergence action against ORYSA in % (Oryza sativa (ORYSA); 20 g/ha, effect vs untreated controls): 0%; Post-emergence action against LOLRI in % (Lolium rigidum (LOLRI) [9]): 90%; Pre-emergence action against AVEFA in % (Avena fatua (AVEFA) [10]; 80 g/ha): 80%; Post-emergence action against AVEFA in % (Avena fatua (AVEFA) [14]; 80 g/ha): 80%; Pre-emergence action against VERPE in % ([17]; dosage 80 g/ha): 90%; Post-emergence action against POLCO in % [19]: 90%; Pre-emergence action against ALOMY ([21]; 80 g/ha): 80%; Pre-emergence action against ALOMY ([21]; 320 g/ha): 100%; Pre-emergence action against LOLRI in % (Lolium rigidum (LOLRI) [22]; dosage 80 g/ha): 90%; Pre-emergence action against LOLRI in % (Lolium rigidum (LOLRI) [22]; dosage 320 g/ha): 100%
Cc1cccnc1-n1nc(OCC(=O)O)c(Br)c1-c1cncc(F)c1 [Example I-204] | 80 | 90 | 0 | 90 | 100 | 100 | 90 | 100 | 90 | 100 | 80 | 100 | 90 | 90 | 80 | 90 | 90 | 100 | 90 | 80 | Post-emergence action against ECHCG in % ([2]; dosage 320 g/ha): 80%; Post-emergence action against PHBPU in % ([4]; dosage 320 g/ha): 80%; Post-emergence action against ALOMY in % ([5]; 320 g/ha): 90%; Pre-emergence action against SETVI in % (Setaria viridis (SETVI) [11]; dosage 80 g/ha): 90%; Post-emergence action against MATIN in % [23]: 80%; Post-emergence action against AVEFA in % (Avena fatua (AVEFA) [14]; 320 g/ha): 80%; Post-emergence action against VERPE in % ([15]; 320 g/ha, VERPE): 90%; Pre-emergence action against POLCO in % ([16]; dosage 80 g/ha): 90%; Post-emergence action against SETVI in % (Setaria viridis (SETVI) [18]; dosage 320 g/ha): 90%; Post-emergence action against AMARE in % ([20]; 320 g/ha, visual rating about 3 weeks after treatment): 80%; Post-emergence action against VIOTR in % (Viola tricolor (VIOTR) [24]; 80 g/ha): 80%; Post-emergence action against VIOTR in % (Viola tricolor (VIOTR) [24]; 320 g/ha): 80%; Pre-emergence action against ALOMY ([21]; 80 g/ha): 90%; Pre-emergence action against ALOMY ([21]; 320 g/ha): 100%
